Target: Carbonic anhydrase 9 (Homo sapiens, UniProt Q16790)
Description: Inhibition of full length human CA9 incubated for 15 mins by phenol red dye based stopped flow CO2 hydration assay

| Structure (SMILES) | Ki [nM] |
| --- | --- |
| NS(=O)(=O)c1ccc(C(=O)N2CCN(C(=O)c3ccc[nH]3)CC2)cc1 | 277 |
| NS(=O)(=O)c1ccc(C(=O)N2CCN(C(=O)c3cc4ccccc4[nH]3)CC2)cc1 | 9.2 |
| Cc1ccoc1C(=O)N1CCN(C(=O)c2ccc(S(N)(=O)=O)cc2)CC1 | 3050 |
| NS(=O)(=O)c1ccc(C(=O)N2CCN(C(=O)c3sccc3Br)CC2)cc1 | 125 |
| NS(=O)(=O)c1ccc(C(=O)N2CCN(C(=O)c3ccc4ccccc4c3)CC2)cc1 | 2990 |
| NS(=O)(=O)c1ccc(C(=O)N2CCN(C(=O)c3cccs3)CC2)cc1 | 3280 |
| NS(=O)(=O)c1ccc(C(=O)N2CCN(C(=O)c3ccc(Cl)s3)CC2)cc1 | 382 |
| NS(=O)(=O)c1ccc(C(=O)N2CCN(C(=O)c3ccc([N+](=O)[O-])s3)CC2)cc1 | 171 |
| Cc1ccsc1C(=O)N1CCN(C(=O)c2ccc(S(N)(=O)=O)cc2)CC1 | 2920 |
| NS(=O)(=O)c1ccc(C(=O)N2CCN(C(=O)c3cc4ccccc4o3)CC2)cc1 | 2940 |
| NS(=O)(=O)c1ccc(C(=O)N2CCN(C(=O)c3ccc([N+](=O)[O-])o3)CC2)cc1 | 976 |
| NS(=O)(=O)c1ccc(C(=O)N2CCN(C(=O)c3ccco3)CC2)cc1 | 3170 |
| NS(=O)(=O)c1ccc(C(=O)N2CCN(C(=O)c3cc4ccccc4s3)CC2)cc1 | 97.9 |
